Source: US6583118B1, “Chondroprotective agents” (Kureha Chemical Industry Co., Ltd., priority 1993, dated 2003)

Experiments:
[1] = test system: chondrocyte culture (derived from cartilage of rabbit shoulder and knee joints); test: Effect of test compounds on proteoglycan depletion in chondrocyte culture (PMA-induced, GAG content); format: cell-based, rabbit (New Zealand white Rabbits); conditions: for Relative amount of GAG: control without PMA = 100
Experimental: The cartilages were sterilely extracted from the shoulder and knee joints of rabbits (New Zealand white Rabbits) (body weight of 1 to 1.5 kg). The cartilages were thoroughly washed with PBS (−) (free of Ca^2+, Mg^2+), Hanks' solution and 0.1% EDTA-PBS (−), and then cut into small segments (1 mm×1 mm×1 mm). After PBS (−) containing 0.1% EDTA was added, the segments were allowed to stand in an incubator of 37° C. for 30 minutes. Then, the segments were treated with a trypsin solution (0.25%) at 37° C. for one hour to remove the connective tissue adhered to the cartilage. After the supernatant had been removed, the cartilages were treated for about 2 to 2.5 hours in a Ham F-12 medium containing 10% fetal bovine serum (FBS) and 0.2% collagenase. Then, the collagenase solution was centrifuged (1500 r.p.m.), and the residual chondrocytes were washed twice with a Ham F-12 medium (chondrocyte culture medium) containing 10% FBS. Finally, the resulting suspension was adjusted so that the chondrocytes were suspended in the concentration of 3×10^5 cells/ml in the chondrocyte culture medium. The chondrocytes were seeded in an amount of 1 ml/well on 24-well plates. The chondrocytes became confluent after 4 days. The experiment were performed within two weeks after reaching the confluent stage.
The chondrocyte culture medium which had been used for cultivating the chondrocytes was removed from each well and 800 μl of fresh serum-free S-Clone medium containing 0.1% human serum albumin was added. Further, 100 μl of S-Clone medium containing the compounds to be tested (containing the compound in the concentration of 10 fold the final concentration; DMSO concentration=2.5%) was added. The chondrocytes were cultured in the presence of carbon dioxide (5%) and air (95%) for 2 hours. Then, the proteoglycan depleting agent, PMA (phorbol myristate acetate) (final concentration=0.1 μg/ml) was added into the culture medium of the chondrocytes.
Proteoglycan depletion was determined by the measurement of the glycosaminoglycan (major constituent of proteoglycan, hereinafter referred to as GAG) content following digestion of the chondrocyte matrix with papain.
After 2 days, the supernatant of the chondrocyte culture was removed. Then, 1 ml of 0.03 […] papaine solution was added to the remaining chondrocyte matrix layer and a reaction was performed at 65° C. for 1 hour to liberate the GAG from the matrix layer. The content of the GAG in the treated papaine solution was determined by the 1,9-dimethylmethylene blue method (refer to R. W. Farndale, Biochim. Biophys. Acta., Vol. 883, pp. 173 to 177, 1986). The GAG content in the chondrocyte matrix of the control test wherein the proteoglycan depleting agent was not added was shown as “100”, and the relative amount of the GAG of each experiment except the control test was calculated by following formula:
GAG relative amount (%)=(B/A)×100
wherein A represents the GAG content of the control tests wherein the proteoglycan depleting agent was not added, and B represents the GAG content wherein the proteoglycan depleting agents were added alone or the GAG content wherein the proteoglycan depleting agents and the compounds to be tested were added.
The GAG content is the value of the mean value ± standard error (n=3 to 6). For each of the compounds to be tested, the control test and the proteoglycan depleting test wherein the proteoglycan depleting agent was added were carried out and the results thereof are also shown. The significance was determined by Student's t-test with respect to the proteoglycan depleting test wherein the proteoglycan depleting agent was added.

BALB/c mice = test: Observation for a week after oral administration to BALB/c mice; format: in vivo, mouse; conditions: 100 mg/kg
Experimental: The same results were obtained where hesperidin, acacetin, diosmetin, apigenin, luteolin, or kaempferol was administered.

Mouse = test: Acute toxicity, mouse LD50; format: in vivo; conditions: intravenous injection
[2] = Acute toxicity, mouse LD50; format: in vivo; conditions: in vivo, oral administration
[3] = PMA 0.1 μg/ml + test compound 100 μM, chondrocyte matrix after 2 days, mean ± standard error (n=3 to 6)
[4] = PMA 0.1 μg/ml + test compound 100 μM
[5] = BALB/c mice (female, seven weeks old), oral

Row | SMILES | GAG content [1, 3] [µg/mL] | Relative amount of GAG [1, 4] | abnormalities observed for a week after administration (BALB/c mice; mouse, in vivo, po) | further results
1 | O=c1c(O)c(-c2ccc(O)cc2)oc2cc(O)cc(O)c12 [No. 17, Kaempferol] | 30.5 ± 0.3 | (55.7) % | no abnormalities were observed | 
2 | COc1ccc([C@@H]2CC(=O)c3c(O)cc(O)cc3O2)cc1O [No. 41, Hesperetin] | 28.7 ± 0.4 | (48.6) % |  | abnormalities observed for a week after administration (BALB/c mice; [5]): no abnormalities were observed
3 | COc1ccc(-c2cc(=O)c3c(O)cc(O)cc3o2)cc1 [No. 11, Acacetin] | 24.2 ± 0.3 | (44.8) % | no abnormalities were observed | 
4 | O=c1cc(-c2ccccc2)oc2cc(O)c(O)c(O)c12 [No. 15, Baicalein] | 7.67 ± 0.5 | (68.3) % |  | 
5 | O=c1c(O)c(-c2ccc(O)c(O)c2)oc2cc(O)ccc12 [No. 16, Fisetin] | 30.1 ± 0.9 | (55.7) % |  | LD50 (Mouse): 180 mg/kg
6 | COc1ccc(-c2cc(=O)c3c(O)cc(O[C@@H]4O[C@H](CO[C@@H]5O[C@@H](C)[C@H](O)[C@@H](O)[C@H]5O)[C@@H](O)[C@H](O)[C@H]4O)cc3o2)cc1 [No. 12, Linarin] | 19.8 ± 0.7 | (35.8) % |  | 
7 | COc1ccc2c(c1)c(CC(=O)O)c(C)n2C(=O)c1ccc(Cl)cc1 [indometacin, Indometacin, reference compound] |  |  |  | Relative amount of GAG ([1]; PMA 0.1 μg/ml + indometacin 10 μM): (47.1) %; GAG content ([1]; PMA 0.1 μg/ml + indometacin 10 μM, mean ± standard error): 13.2 ± 0.6 µg/mL; Relative amount of GAG ([1]; PMA 0.1 μg/ml + indometacin 33 μM): (41.8) %; GAG content ([1]; PMA 0.1 μg/ml + indometacin 33 μM, mean ± standard error): 11.7 ± 0.8 µg/mL
8 | COc1ccc([C@@H]2CC(=O)c3c(O)cc(O[C@@H]4O[C@H](CO[C@@H]5O[C@@H](C)[C@H](O)[C@@H](O)[C@H]5O)[C@@H](O)[C@H](O)[C@H]4O)cc3O2)cc1O [No. 42, Hesperidin] | 24.0 ± 0.6 | (42.8) % |  | abnormalities observed for a week after administration (BALB/c mice; [5]): no abnormalities were observed
9 | O=c1cc(-c2ccc(O)c(O)c2)oc2cc(O)cc(O)c12 [No. 8, Luteolin] | 28.6 ± 0.5 | (52.2) % | no abnormalities were observed | 
10 | COc1ccc(-c2cc(=O)c3c(O)cc(O)cc3o2)cc1O [No. 13, Diosmetin] | 27.1 ± 0.7 | (49.0) % | no abnormalities were observed | 
11 | O=c1cc(-c2ccc(O)cc2)oc2cc(O)cc(O)c12 [No. 5, Apigenin] | 33.3 ± 0.7 | (60.9) % | no abnormalities were observed | 
12 | O=c1c(O)c(-c2ccc(O)c(O)c2)oc2cc(O)cc(O)c12 [No. 22, Quercetin] | 31.0 ± 0.6 | (55.3) % |  | LD50 [2]: 160 mg/kg
